Results: PMC7253423, “Quassinoid analogs with enhanced efficacy for treatment of hematologic malignancies target the PI3Kγ isoform” (Communications Biology, 2020)
Where two headings read alike, the source gives them in different places.

Key:
Raji cells = experiment: Cell viability assay (CellTiter-Glo luminescence); format: cell-based, human; details: Homo sapiens; for viability at 0.00244141 µM: read-out: relative cell viability (Fig 6f), replicates, Raji, Con. 0.00244141 μM, fraction of 0 μM control; for viability at 0.0390625 µM: read-out: relative cell viability (Fig 6f), replicates, Raji, Con. 0.0390625 μM, fraction of 0 μM control; for viability at 0.15625 µM: read-out: relative cell viability (Fig 6f), replicates, Raji, Con. 0.15625 μM, fraction of 0 μM control; for viability at 0.625 µM: read-out: relative cell viability (Fig 6f), replicates, Raji, Con. 0.625 μM, fraction of 0 μM control; for viability at 10 µM: read-out: relative cell viability (Fig 6f), replicates, Raji, Con. 10 μM, fraction of 0 μM control; for viability at […]: read-out: relative cell viability (Fig 6f), replicates, Raji, Con. […], fraction of 0 μM control
Procedure: (§1) 5000 cells as indicated were cultured in 96-well plate with 100 μl of media. […] After treatment, the cells were incubated with 100 μl buffer for 10 min at room temperature following the instructions of CellTiter-Glo kit (Promega, Madison, WI). Luminescence was detected using a multi-mode reader Cytation 5 (BioTek, Winooski, VT). […] Two independent experiments done in duplicates were performed.

SU-DHL-4 cells = experiment: Cell viability assay (CellTiter-Glo luminescence); format: cell-based, human; details: Homo sapiens, SU-DHL-4, 144 h; for viability at 0.00244141 µM: read-out: relative cell viability (Fig 6d), replicates, SU-DHL-4, Con. 0.00244141 μM, fraction of 0 μM control; for viability at 0.0390625 µM: read-out: relative cell viability (Fig 6d), replicates, SU-DHL-4, Con. 0.0390625 μM, fraction of 0 μM control; for viability at 0.15625 µM: read-out: relative cell viability (Fig 6d), replicates, SU-DHL-4, Con. 0.15625 μM, fraction of 0 μM control; for viability at 0.625 µM: read-out: relative cell viability (Fig 6d), replicates, SU-DHL-4, Con. 0.625 μM, fraction of 0 μM control; for viability at 10 µM: read-out: relative cell viability (Fig 6d), replicates, SU-DHL-4, Con. 10 μM, fraction of 0 μM control
Procedure: as §1

MOLM14 cells = experiment: Cell viability assay (CellTiter-Glo luminescence); format: cell-based; details: Homo sapiens; for viability at 0.00244141 µM: MOLM-14, read-out: relative cell viability (Fig 6e), replicates, MOLM14, Con. 0.00244141 μM, fraction of 0 μM control; for viability at 0.0390625 µM: MOLM-14, read-out: relative cell viability (Fig 6e), replicates, MOLM14, Con. 0.0390625 μM, fraction of 0 μM control; for viability at 0.15625 µM: MOLM-14, read-out: relative cell viability (Fig 6e), replicates, MOLM14, Con. 0.15625 μM, fraction of 0 μM control; for viability at 0.625 µM: MOLM-14, read-out: relative cell viability (Fig 6e), replicates, MOLM14, Con. 0.625 μM, fraction of 0 μM control; for viability at 10 µM: MOLM-14, read-out: relative cell viability (Fig 6e), replicates, MOLM14, Con. 10 μM, fraction of 0 μM control; for viability at […]: MOLM-14, read-out: relative cell viability (Fig 6e), replicates, MOLM14, Con. […], fraction of 0 μM control
Procedure: as §1

[1] = Cytotoxicity, cell viability assay in normal cells; format: cell-based, human; details: human, PBMC, fraction of 0 μM control, read-out: relative cell viability (Fig 6a), replicates; for viability at 0.000244141 μM: Con. 0.000244141 μM; for viability at 0.00390625 μM: Con. 0.00390625 μM; for viability at 0.015625 μM: Con. 0.015625 μM; for viability at 0.0625 μM: Con. 0.0625 μM; for viability at 1 μM: Con. 1 μM
From the text: (§2) Human peripheral blood mononuclear cells (PBMCs), normal T-cells and B-cells were provided by the University of Pennsylvania Human Immunology Core (HIC), and Patient-derived xenografts (PDXs) were obtained from Fox Chase Cancer Center (FCCC). These samples were from different unidentified and healthy donors with written, informed consent. All the procedures were approved by the Institutional Review Board (IRB) and conducted according to the declarations of Helsinki protocols.
as §1

[2] = Cytotoxicity, cell viability assay in normal cells; format: cell-based; details: human, fraction of 0 μM control; for viability at 0.000244141 μM: Con. 0.000244141 μM; for viability at 0.00390625 μM: Con. 0.00390625 μM; for viability at 0.015625 μM: Con. 0.015625 μM; for viability at 0.0625 μM: Con. 0.0625 μM; for viability at 1 μM: Con. 1 μM; for viability at […]: Con. […]
From the text: as §2, §1

[3] = normal B-cells from healthy donors, B-cells, read-out: relative cell viability (Fig 6c), replicates
[4] = normal T-cells from healthy donors, T-cells, read-out: relative cell viability (Fig 6b), replicates

COc1c(OCCCN2CCOCC2)ccc2c1N=C(NC(=O)c1cnc(N)nc1)N1CCN=C21 [Copanlisib]
viability at 0.00244141 µM (Raji cells): 94.7% | viability at 0.0390625 µM (Raji cells): 91.7% | viability at 0.15625 µM (Raji cells): 102% | viability at 0.625 µM (Raji cells): 67.9% | viability at 10 µM (Raji cells): 7.75% | viability at 0.00244141 µM (SU-DHL-4 cells): 122% | viability at 0.0390625 µM (SU-DHL-4 cells): 69% | viability at 0.15625 µM (SU-DHL-4 cells): 42.6% | viability at 0.625 µM (SU-DHL-4 cells): 12.3% | viability at 10 µM (SU-DHL-4 cells): 5.12% | viability at 0.00244141 µM (MOLM14 cells): 89.1% | viability at 0.0390625 µM (MOLM14 cells): 59% | viability at 0.15625 µM (MOLM14 cells): 58.4% | viability at 0.625 µM (MOLM14 cells): 18.1% | viability at 10 µM (MOLM14 cells): 4.25% | viability at 0.000244141 μM [1]: 104% | viability at 0.00390625 μM [1]: 106% | viability at 0.015625 μM [1]: 92.8% | viability at 0.0625 μM [1]: 73% | viability at 1 μM [1]: 61.4% | viability at 0.000244141 μM [2, 3]: 90.1% | viability at 0.00390625 μM [2, 3]: 95.7% | viability at 0.015625 μM [2, 3]: 91.4% | viability at 0.0625 μM [2, 3]: 79.9% | viability at 1 μM [2, 3]: 52.6% | viability at 0.000244141 μM [2, 4]: 95.3% | viability at 0.00390625 μM [2, 4]: 102% | viability at 0.015625 μM [2, 4]: 94.4% | viability at 0.0625 μM [2, 4]: 107% | viability at 1 μM [2, 4]: 79.9%

C[C@H](Nc1ncnc2nc[nH]c12)c1cc2cccc(Cl)c2c(=O)n1-c1ccccc1 [Duvelisib]
viability at 0.00244141 µM (Raji cells): 94.9% | viability at 0.0390625 µM (Raji cells): 112% | viability at 0.15625 µM (Raji cells): 94.1% | viability at 0.625 µM (Raji cells): 99.1% | viability at 10 µM (Raji cells): 64.1% | viability at […] (Raji cells): 104% | viability at 0.00244141 µM (SU-DHL-4 cells): 103% | viability at 0.0390625 µM (SU-DHL-4 cells): 99.8% | viability at 0.15625 µM (SU-DHL-4 cells): 85.8% | viability at 0.625 µM (SU-DHL-4 cells): 75.1% | viability at 10 µM (SU-DHL-4 cells): 27.4% | viability at 0.0390625 µM (MOLM14 cells): 122% | viability at 0.15625 µM (MOLM14 cells): 109% | viability at 0.625 µM (MOLM14 cells): 125% | viability at 10 µM (MOLM14 cells): 24.1% | viability at […] (MOLM14 cells): 106% | viability at 0.000244141 μM [1]: 103% | viability at 0.00390625 μM [1]: 94.6% | viability at 0.015625 μM [1]: 101% | viability at 0.0625 μM [1]: 92.6% | viability at 1 μM [1]: 80.3% | viability at 0.000244141 μM [2, 3]: 94.3% | viability at 0.00390625 μM [2, 3]: 103% | viability at 0.015625 μM [2, 3]: 80.4% | viability at 0.0625 μM [2, 3]: 104% | viability at 1 μM [2, 3]: 72.7% | viability at 0.000244141 μM [2, 4]: 108% | viability at 0.00390625 μM [2, 4]: 100% | viability at 0.015625 μM [2, 4]: 99.3% | viability at 0.0625 μM [2, 4]: 102% | viability at 1 μM [2, 4]: 93.2% | viability at […] [2, 4]: 103%

C[C@H](NC(=O)c1c(N)nn2cccnc12)c1cc2cccc(C#Cc3cnn(C)c3)c2c(=O)n1-c1ccccc1 [IPI-549]
viability at 0.00244141 µM (Raji cells): 95.4% | viability at 0.0390625 µM (Raji cells): 108% | viability at 0.15625 µM (Raji cells): 113% | viability at 0.625 µM (Raji cells): 122% | viability at 10 µM (Raji cells): 55% | viability at […] (Raji cells): 98.4% | viability at 0.00244141 µM (SU-DHL-4 cells): 94.9% | viability at 0.15625 µM (SU-DHL-4 cells): 115% | viability at 0.625 µM (SU-DHL-4 cells): 94.2% | viability at 10 µM (SU-DHL-4 cells): 30.8% | viability at 0.00244141 µM (MOLM14 cells): 121% | viability at 0.625 µM (MOLM14 cells): 93.4% | viability at 10 µM (MOLM14 cells): 23.9% | viability at […] (MOLM14 cells): 119% | viability at 0.00390625 μM [1]: 98.8% | viability at 0.015625 μM [1]: 104% | viability at 0.0625 μM [1]: 102% | viability at 1 μM [1]: 99.1% | viability at 0.000244141 μM [2, 3]: 107% | viability at 0.015625 μM [2, 3]: 118% | viability at 0.0625 μM [2, 3]: 105% | viability at 1 μM [2, 3]: 93.7% | viability at […] [2, 3]: 122% | viability at 0.000244141 μM [2, 4]: 108% | viability at 0.00390625 μM [2, 4]: 107% | viability at 0.015625 μM [2, 4]: 109% | viability at 0.0625 μM [2, 4]: 83.1% | viability at 1 μM [2, 4]: 115% | viability at […] [2, 4]: 109%

CC[C@H](Nc1ncnc2[nH]cnc12)c1nc2cccc(F)c2c(=O)n1-c1ccccc1 [Idelalisib]
viability at 0.00244141 µM (Raji cells): 111% | viability at 0.15625 µM (Raji cells): 114% | viability at 0.0390625 µM (SU-DHL-4 cells): 96.2% | viability at 0.15625 µM (SU-DHL-4 cells): 99.8% | viability at 0.625 µM (SU-DHL-4 cells): 87.1% | viability at 10 µM (SU-DHL-4 cells): 33.1% | viability at 0.625 µM (MOLM14 cells): 113% | viability at […] (MOLM14 cells): 120% | viability at 0.00390625 μM [1]: 99.7% | viability at 0.015625 μM [1]: 111% | viability at 0.0625 μM [1]: 83.8% | viability at 1 μM [1]: 89.1% | viability at 0.000244141 μM [2, 3]: 101% | viability at 0.00390625 μM [2, 3]: 103% | viability at 0.015625 μM [2, 3]: 103% | viability at 1 μM [2, 3]: 81.2% | viability at 0.000244141 μM [2, 4]: 105% | viability at 0.00390625 μM [2, 4]: 102% | viability at 0.015625 μM [2, 4]: 98.9% | viability at 1 μM [2, 4]: 98.7%
